Test results reported in patent publication US8389679B2, “Targeted antimicrobial moieties” (priority 2009, dated 2013).
“Also recorded” adds a separate entry of the source.

Tested on: target microorganisms
Experiment: Screen of synthesized peptides for binding to target microorganisms (targeting peptides, Tables 2 and 3)
Conditions: microorganism(s) the targeting peptide was identified as binding to (Table 3)
Description: Once noted, these peptides were batch synthesized on a multiplex peptide synthesizer, yielding 5-10 mg of each peptide that could readily be screened for biological activity (e.g., binding activity and/or antimicrobial activity.
Other suitable targeting peptides include the peptides that have been identified as binding to particular target organisms as shown in Table 3 and/or Table 4.

Substance | Target(s)
1T-146 (RNSADNQTKIDKIRIDISLWDEHLNIVKQGK; synthetic novel tartgeting peptide IT-146) | A. naeslundii, F. nucleatum,; also recorded: P. gingivalis,; also recorded: T. denticolaS. gordonii,; also recorded: S. mitis, S. mutans, S. oralis,; also recorded: S. salivarious, S. sanguinis
1T-128 (SGSAIRMLEIATKMLKR; synthetic novel tartgeting peptide IT-128) | A. naeslundii, P. gingivalis; also recorded: S. epidermidis,; also recorded: S. gordonii, S. mitis, S. mutans,; also recorded: S. oralis, S. salivarious,; also recorded: S. sanguinis
1T-166 (AQSAGQIKRKSKVRIHV; synthetic novel tartgeting peptide IT-166) | A. naeslundii, F. nucleatum,; also recorded: P. gingivalis; also recorded: S. epidermidis,; also recorded: S. gordonii, S. mitis, S. mutans,; also recorded: S. oralis, S. salivarious,; also recorded: S. sanguinis
1T-13 (FRSPCINNNSLQPPGVYPAR; synthetic novel tartgeting peptide IT-13) | S. aureus; also recorded: S. epidermidis; also recorded: P. aeruginosa
1T-14 (ALAGLAGLISGK; synthetic novel tartgeting peptide IT-14) | S. mutans; also recorded: S. aureus; also recorded: S. epidermidis; also recorded: C. xerosis
1T-1 (YVNYNQSFNSGW; synthetic novel tartgeting peptide IT-1) | S. mutans
1T-86 (HRKNPVLGVGRRHRAHNVA; synthetic novel tartgeting peptide IT-86) | S. mitis, S. oralis, S. salivarious
1T-126 (QGLARPVLRRIPL; synthetic novel tartgeting peptide IT-126) | S. gordonii, S. mitis, S. mutans
1T-42 (TVLDWLSLALATGLFVYLLVALLRADRA; synthetic novel tartgeting peptide IT-42) | S. aureus; also recorded: S. epidermidis; also recorded: C. xerosis; also recorded: C. striatum; also recorded: P. aeruginosa
1T-53 (SDILAEMFEKGELQTLVKDAAAKANA; synthetic novel tartgeting peptide IT-53) | P. aeruginosa
1T-7 (SQRIIEPVKSPQPYPGFSVS; synthetic novel tartgeting peptide IT-7) | Myxococcus xanthus
1T-150 (YINRRLKKAFSDADIKEAPAEFYEELRRVQYV; synthetic novel tartgeting peptide IT-150) | A. naeslundii, F. nucleatum,; also recorded: P. gingivalis,; also recorded: T. denticolaS. gordonii,; also recorded: S. mitis, S. mutans, S. oralis,; also recorded: S. salivarious, S. sanguinis
1T-64 (QTVHHIHMHVLGQRQMHWPPG; synthetic novel tartgeting peptide IT-64) | S. aureus; also recorded: S. epidermidis; also recorded: C. jeikeium; also recorded: C. xerosis; also recorded: C. striatum; also recorded: P. aeruginosa
1T-36 (VYRHLRFIDGKLVEIRLERK; synthetic novel tartgeting peptide IT-36) | S. aureus; also recorded: S. epidermidis; also recorded: C. jeikeium; also recorded: C. xerosis; also recorded: C. striatum; also recorded: P. aeruginosa
1T-106 (DALRRSRSQGRRHR; synthetic novel tartgeting peptide IT-106) | S. gordonii, S. mitis, S. mutans,; also recorded: S. oralis, S. salivarious
1T-130 (QKIIDMSKFLFSLILFIMIVVIYIGKSIGGYSAIVSSIMLELDTVLYNKKIFFIYK; synthetic novel tartgeting peptide IT-130) | A. naeslundii, F. nucleatum,; also recorded: P. gingivalis; also recorded: S. epidermidis,; also recorded: S. gordonii, S. mitis, S. mutans,; also recorded: S. oralis, S. salivarious,; also recorded: S. sanguinis
1T-15 (DVILRVEAQ; synthetic novel tartgeting peptide IT-15) | S. mutans
1T-29 (GSVIKKRRKRMSKKKHRKMLRRTRVQRRKLGK; synthetic novel tartgeting peptide IT-29) | S. mutans; also recorded: S. aureus; also recorded: S. epidermidis; also recorded: C. jeikeium; also recorded: C. xerosis; also recorded: C. striatum; also recorded: P. aeruginosa
1T-73 (GWWEELLHETILSKFKITKALELPIQL; synthetic novel tartgeting peptide IT-73) | Streptococcus; also recorded: pneumoniae
1T-22 (VPLDDGTRRPEVARNRDKDRED; synthetic novel tartgeting peptide IT-22) | S. epidermidis; also recorded: P. aeruginosa
1T-103 (AQFYEAIITGYALGAGQRIGQL; synthetic novel tartgeting peptide IT-103) | A. naeslundii, F. nucleatum,; also recorded: P. gingivalis; also recorded: S. epidermidis,; also recorded: S. gordonii, S. mitis, S. mutans,; also recorded: S. oralis, S. sanguinis

Substance | Target(s)
1T-145 (VEAGKRNISLENIEKISKGLGISISELFKYIEEGEDKIG; synthetic novel tartgeting peptide IT-145) | S. mitis, S. mutans, S. oralis
1T-28 (VSRDEAMEFIDREWTTLQPAGKSHA; synthetic novel tartgeting peptide IT-28) | P. aeruginosa
1T-104 (RAVAAHLQGRHHGHQVRRQRHGQR; synthetic novel tartgeting peptide IT-104) | S. mitis
1T-131 (DEVWKMLGI; synthetic novel tartgeting peptide IT-131) | A. naeslundii, F. nucleatum,; also recorded: P. gingivalis,; also recorded: T. denticolaS. gordonii,; also recorded: S. mitis, S. mutans, S. oralis,; also recorded: S. salivarious, S. sanguinis
1T-46 (FSFKQRVMFRKEVERLR; synthetic novel tartgeting peptide IT-46) | S. aureus; also recorded: S. epidermidis; also recorded: C. jeikeium; also recorded: C. xerosis; also recorded: C. striatum; also recorded: P. aeruginosa
1T-35 (EICLTLVFPIRGSYSEAAKFPVPIHIVEDGTVELPK; synthetic novel tartgeting peptide IT-35) | P. aeruginosa
1T-118 (TASPPAPSDQGLRTAFPATLLIALAALARISR; synthetic novel tartgeting peptide IT-118) | A. naeslundii, F. nucleatum,; also recorded: P. gingivalis; also recorded: S. epidermidis,; also recorded: S. gordonii, S. mitis, S. mutans,; also recorded: S. oralis, S. salivarious,; also recorded: S. sanguinis
1T-65 (HARAAVGVAELPRGAAVEVELIAAVRP; synthetic novel tartgeting peptide IT-65) | S. mutans; also recorded: S. aureus; also recorded: S. epidermidis; also recorded: C. jeikeium; also recorded: C. xerosis; also recorded: C. striatum; also recorded: P. aeruginosa
1T-92 (GQDEGQRRAGVGEGQGVDG; synthetic novel tartgeting peptide IT-92) | S. mitis, S. mutans
1T-30 (GKAKPYQVRQVLRAVDKLETRRKKGGR; synthetic novel tartgeting peptide IT-30) | S. aureus; also recorded: S. epidermidis; also recorded: C. xerosis; also recorded: C. striatum; also recorded: P. aeruginosa
1T-136 (ELLTQIRLALLYSVNEW; synthetic novel tartgeting peptide IT-136) | A. naeslundii, F. nucleatum,; also recorded: P. gingivalis,; also recorded: S. epidermidis, S. gordonii,; also recorded: S. mitis, S. mutans,; also recorded: S. oralis, S. salivarious,; also recorded: S. sanguinis
1T-12 (FGNIFKGLKDVIETIVKWTAAK; synthetic novel tartgeting peptide IT-12) | Corynebacterium; also recorded: xerosis; also recorded: striatum; also recorded: S. epidermidis; also recorded: S. mutans
1T-134 (SRLVREIKKKCRKS; synthetic novel tartgeting peptide IT-134) | A. naeslundii, F. nucleatum,; also recorded: P. gingivalis; also recorded: S. epidermidis,; also recorded: S. gordonii, S. mitis, S. mutans,; also recorded: S. oralis, S. salivarious,; also recorded: S. sanguinis
1T-39 (FGFCVWMYQLLAGPPGPPA; synthetic novel tartgeting peptide IT-39) | S. mutans; also recorded: P. aeruginosa
1T-117 (GPGVVGPAPFSRLPAHALNL; synthetic novel tartgeting peptide IT-117) | S. mutans
1T-90 (RNVIGQVL; synthetic novel tartgeting peptide IT-90) | S. gordonii, S. mitis, S. mutans,; also recorded: S. oralis, S. sanguinis
1T-152 (YVSADESAYNHIVTDDIPLADRRIEAVQQ; synthetic novel tartgeting peptide IT-152) | A. naeslundii, F. nucleatum,; also recorded: P. gingivalis; also recorded: S. epidermidis,; also recorded: S. gordonii, S. mitis, S. mutans,; also recorded: S. oralis, S. salivarious,; also recorded: S. sanguinis
1T-116 (MILHRRRDR; synthetic novel tartgeting peptide IT-116) | A. naeslundii, P. gingivalis; also recorded: S. epidermidis,; also recorded: S. gordonii, S. mitis, S. mutans,; also recorded: S. oralis, S. salivarious,; also recorded: S. sanguinis
1T-142 (FTQGIKRIVLKRLKED; synthetic novel tartgeting peptide IT-142) | A. naeslundii, F. nucleatum,; also recorded: P. gingivalis,; also recorded: T. denticolaS. gordonii,; also recorded: S. mitis, S. mutans, S. oralis,; also recorded: S. salivarious, S. sanguinis
1T-105 (GEGLPPPVLHLPPPRMSGR; synthetic novel tartgeting peptide IT-105) | S. epidermidis, S. gordonii,; also recorded: S. mitis, S. mutans,; also recorded: S. oralis
1T-112 (SDNDGKLILGTSQ; synthetic novel tartgeting peptide IT-112) | S. gordonii
